These results are taken from patent publication US8853409B2, “Pyridin-2yl-amino-1, 2, 4-thiadiazole derivatives as glucokinase activators for the treatment of diabetes mellitus” (Array BioPharma Inc., priority 2007, dated 2014).

Some results are limits rather than exact numbers.

The data set in a line: Mouse PK study (oral pharmacokinetics). As to conditions: male, 10 mg/kg, CD-1 mice, plasma, read-out: AUC indicator (oral AUC). The data set is classed as in vivo. As to the method:
Oral pharmacokinetics of each of the compounds shown in Table 1 (“test compound”) were determined as follows.
Test compound was formulated in PEG400:ethanol:saline (40:20:40, by volume) for IV administration and in 30% Captisol in water for both IV and PO administration in CD-1 mice. Labetalol was used as an internal standard for the LC-MS/MS assay of the CD-1 mouse samples.
Adult male CD-1 mice were obtained from Charles River Laboratories in Portage, Mich. At the time of study-start, each CD-1 mouse weighed approximately 30 grams and was between the ages of 7-9 weeks. All CD-1 mice were acclimated to the Array BioPharma Inc. vivarium for at least 5 days prior to administration of an IV dose by way of a tail vein injection (5 mL/kg) or a PO dose by oral gavage (10 mL/kg).
Animals were euthanized by CO2 inhalation and blood samples were collected by cardiac puncture into syringes containing a 1.5% EDTA solution in water (w/v; pH was titrated to 7.4 with 5 N NaOH; the final ratio of blood to EDTA was approximately […]) as the anticoagulant. Plasma was harvested from blood samples by centrifugation and stored at −20° C. until analysis. The following time points were collected for the IV arm: 0.017, 0.083, 0.25, 0.5, 1, 2, 4, 8, 12 and 24 hours post dose. The following time points were collected for the PO arm: 0.25, 0.50, 1, 4, 8, and 24 hours post dose.
Protein was precipitated from 20 μL of mouse plasma with the addition of 200 μL of 0.1% acetic acid in acetonitrile. A single 12-point calibration curve was prepared by first serially diluting (3-fold) a 40-μg/mL stock solution of the test compound in acetonitrile. Naive CD-1 mouse plasma (20 μL) was then added to each standard solution (200 μL). A stock solution of the internal standard (Labetalol; 180 μL of 0.1 μg/mL in acetonitrile) was subsequently added to each standard and sample solution, for a total volume of 400 μL. Samples were vortex-mixed for 5 minutes and spun in an Allegra X-12R centrifuge (Beckman Coulter, Fullerton, Calif.) for 15 minutes at approximately 1,500×g at 4° C. A 100-μL aliquot of each supernatant was transferred via a 550 μL Personal Pipettor (Apricot Designs, Monrovia, Calif.) to 96-well plates and diluted 1:1 with HPLC grade water. The resulting plates were sealed with plate mats and analyzed by LC-MS/MS.
The LC-MS/MS system was comprised of an HTC-PAL autosampler (Leap Technologies, Inc., Carrboro, N.C.), an HP1100 HPLC (Agilent Technologies Inc., Santa Clara, Calif.), and an API4000 triple quadrupole mass spectrometer (Applied Biosystems, Foster City, Calif.). Chromatographic retention of the analyte and internal standard was achieved using a Betasil Phenyl-Hexyl column (2.1×30 mm, 3 μm particle size, Thermo Scientific) in conjunction with gradient conditions using mobile phases A (aqueous 0.1% formic acid and 1% IPA) and B (0.1% formic acid in acetonitrile). The total run time, including re-equilibration time, for a single injection was 3.5 minutes. Mass spectrometric detection of the analytes was accomplished using ESI+ ionization mode. Ion current was optimized during infusion of a stock solution of the test compound. Analyte responses were measured by multiple reaction monitoring (MRM) of transitions unique to each compound.
Data were acquired and processed using the Applied Biosystems Analyst software (version 1.4.2). Calibration was achieved by plotting the peak area ratios of analyte to internal standard as a function of the normal concentrations of standard samples. A calibration model was generated by quadratic regression of the calibration curve with a weighting factor of 1/x. The model was used to calculate the concentrations in all samples. The lower limit of quantitation (LLOQ) for this analysis was in the single-digit μg/mL range (either 2.03 or 6.10 μg/mL).
Pharmacokinetic parameters were calculated by established non-compartmental methods using an in-house Excel® (Microsoft Corporation, Redmond, Wash.) macro, PK Toolbox version 2.0. […]
In the case of `Cc1cccnc1Sc1cnc(Nc2nc([C@H](O)CO)ns2)c(Oc2cccnc2C)c1.Cl` [Example 141, (S)-1-(5-(5-(3-methylpyridin-2-ylthio)-3-(2-methylpyridin-3-yloxy)pyridin-2-ylamino)-1,2,4-thiadiazol-3-yl)ethane-1,2-diol hydrochloride], the AUC (usually concentration integrated over time) was in the range of 1000 to 5000 ng·h/mL.

In the case of `COCCSc1cnc(Nc2nc([C@H](O)CO)ns2)c(Oc2c(C)nn(C)c2C)c1.Cl` [Example 148, (S)-1-(5-(5-(2-methoxyethylthio)-3-(1,3,5-trimethyl-1H-pyrazol-4-yloxy)pyridin-2-ylamino)-1,2,4-thiadiazol-3-yl)ethane-1,2-diol hydrochloride], the AUC was in the range of 1000 to 5000 ng·h/mL.

For `CCc1ncccc1Oc1cc(Sc2ccccn2)cnc1Nc1nc([C@H](O)CO)ns1` [Example 137], the exposure (AUC) was 5000 to 10000 ng·h/mL.

With `CCn1nccc1Oc1cc(Sc2ccccn2)cnc1Nc1nc([C@H](O)C(C)(C)O)ns1.Cl` [Example 140, (S)-1-(5-(3-(1-ethyl-1H-pyrazol-5-yloxy)-5-(pyridin-2-ylthio)pyridin-2-ylamino)-1,2,4-thiadiazol-3-yl)-2-methylpropane-1,2-diol], the AUC was greater than 20000 ng·h/mL.

Turning to `CCn1nccc1Oc1cc(Sc2ccccn2)cnc1Nc1nc([C@H](O)CO)ns1.Cl` [Example 139, (S)-1-(5-(3-(1-Ethyl-1H-pyrazol-5-yloxy)-5-(pyridin-2-ylthio)pyridin-2-ylamino)-1,2,4-thiadiazol-3-yl)ethane-1,2-diol hydrochloride], the AUC is greater than 20000 ng·h/mL.

Turning to `Cc1ncccc1Oc1cc(Sc2ccccn2)cnc1Nc1nc([C@H](O)C(C)(C)O)ns1.Cl` [Example 143, (S)-2-methyl-1-(5-(3-(2-methylpyridin-3-yloxy)-5-(pyridin-2-ylthio)pyridin-2-ylamino)-1,2,4-thiadiazol-3-yl)propane-1,2-diol hydrochloride], the exposure (AUC) was greater than 20000 ng·h/mL.

In the case of `CCc1ncccc1Oc1cc(Sc2ccccn2)cnc1Nc1nc([C@H](O)[C@@H](O)COC)ns1.Cl` [Example 145, (1S,2S)-1-(5-(3-(2-ethylpyridin-3-yloxy)-5-(pyridin-2-ylthio)pyridin-2-ylamino)-1,2,4-thiadiazol-3-yl)-3-methoxypropane-1,2-diol hydrochloride], the exposure (AUC) lay within 5000 to 10000 ng·h/mL.

As for `Cc1ccnc(C)c1Oc1cc(Sc2ccccn2)cnc1Nc1nc([C@H](O)CO)ns1.Cl` [Example 142, (S)-1-(5-(3-(2,4-dimethylpyridin-3-yloxy)-5-(pyridin-2-ylthio)pyridin-2-ylamino)-1,2,4-thiadiazol-3-yl)ethane-1,2-diol hydrochloride], the AUC was in the range of 1000 to 5000 ng·h/mL.

Regarding `Cc1nn(C)c(C)c1Oc1cc(Sc2ccccn2)cnc1Nc1nc([C@H](O)C(C)(C)O)ns1.Cl` [Example 146, (S)-2-methyl-1-(5-(5-(pyridin-2-ylthio)-3-(1,3,5-trimethyl-1H-pyrazol-4-yloxy)pyridin-2-ylamino)-1,2,4-thiadiazol-3-yl)propane-1,2-diol hydrochloride], the AUC was in the range of 10000 to 20000 ng·h/mL.

For `Cc1ncccc1Oc1cc(SCC2CC2)cnc1Nc1nc([C@H](O)CO)ns1.Cl` [Example 136, (S)-1-(5-(5-(cyclopropylmethylthio)-3-(2-methylpyridin-3-yloxy)pyridin-2-ylamino)-1,2,4-thiadizol-3-yl)ethane-1,2-diol hydrochloride], the AUC fell in the range of 10000 to 20000 ng·h/mL.

With `Cc1ncccc1Oc1cc(Sc2ccccn2)cnc1Nc1nc([C@@](C)(O)CO)ns1.Cl` [Example 151, (R)-2-(5-(3-(2-methylpyridin-3-yloxy)-5-(pyridin-2-ylthio)pyridin-2-ylamino)-1,2,4-thiadiazol-3-yl)propane-1,2-diol hydrochloride], the exposure (AUC) is greater than 20000 ng·h/mL.

As to `COCCCSc1cnc(Nc2nc([C@H](O)CO)ns2)c(Oc2cccnc2C)c1.Cl` [Example 138, (S)-1-(5-(5-(3-methoxypropylthio)-3-(2-methylpyridin-3-yloxy)-pyridin-2-ylamino)-1,2,4-thiadizol-3-yl)ethane-1,2-diol hydrochloride], the area under the curve (AUC) lay in the range of 1000 to 5000 ng·h/mL.

As for `Cc1ccc(Oc2cc(Sc3ccccn3)cnc2Nc2nc([C@H](O)CO)ns2)c(C)n1.Cl` [Example 135, (S)-1-(5-(3-(2,6-dimethylpyridin-3-yloxy)-5-(pyridin-2-ylthio)pyridin-2-ylamino)-1,2,4-thiadizol-3-yl)ethane-1,2-diol hydrochloride], the AUC fell in the range of 5000 to 10000 ng·h/mL.

Regarding `Cc1ncccc1Oc1cc(Sc2ccccn2)cnc1Nc1nc([C@@H](O)CO)ns1` [Example 149, (R)-1-(5-(3-(2-methylpyridin-3-yloxy)-5-(pyridin-2-ylthio)pyridin-2-ylamino)-1,2,4-thiadiazol-3-yl)ethane-1,2-diol], the area under the curve (AUC) was 5000 to 10000 ng·h/mL.

Take `Cc1nn(C)c(C)c1Oc1cc(Sc2ccccn2)cnc1Nc1nc([C@H](O)CO)ns1.Cl` [Example 147, (S)-1-(5-(5-(pyridin-2-ylthio)-3-(1,3,5-trimethyl-1H-pyrazol-4-yloxy)pyridin-2-ylamino)-1,2,4-thiadiazol-3-yl)ethane-1,2-diol hydrochloride]: the AUC is 1000 to 5000 ng·h/mL.

In the case of `COCCSc1cnc(Nc2nc([C@H](O)CO)ns2)c(Oc2cccnc2C)c1.Cl` [Example 144, (S)-1-(5-(5-(2-methoxyethylthio)-3-(2-methylpyridin-3-yloxy)pyridin-2-ylamino)-1,2,4-thiadiazol-3-yl)ethane-1,2-diol hydrochloride], the AUC lay in the range of 5000 to 10000 ng·h/mL.

Consider `Cc1ncccc1Oc1cc(Sc2ccccn2)cnc1Nc1nc([C@](C)(O)CO)ns1.Cl` [Example 150, (S)-2-(5-(3-(2-methylpyridin-3-yloxy)-5-(pyridin-2-ylthio)pyridin-2-ylamino)-1,2,4-thiadiazol-3-yl)propane-1,2-diol hydrochloride], for which the exposure (AUC) was 10000 to 20000 ng·h/mL.

As to `Cc1ncccc1Oc1cc(Sc2ccccn2)cnc1Nc1nc([C@H](O)CO)ns1.Cl` [Example 134, (S)-1-(5-(3-(2-methylpyridin-3-yloxy)-5-(pyridin-2-ylthio)pyridin-2-ylamino)-1,2,4-thiadiazol-3-yl)ethane-1,2-diol hydrochloride], the AUC was in the range of 10000 to 20000 ng·h/mL.
